The results in this text go back to patent US11129827B2 (priority 2017, dated 2021).

The target of experiment [1] is FAAH (Homo sapiens (Human), UniProt O00519). Kind of experiment: biochemical. The following applies: for inhibition at 1 µM: read-out: FAAH (human) % inh. 1 μM.
Experiment [2] addresses MAGL (Homo sapiens (Human), UniProt Q99685). Nature of the experiment: biochemical. The following applies: for inhibition at 1 µM: read-out: MAGL (human) % inh. 1 μM.
The target of experiment [3] is FAAH (Mus musculus (Mouse), UniProt O08914). Kind of experiment: in vivo. Particulars: po, read-out: FAAH (mouse) % inh. 5 mg/kg.
Experiment [4] deals with MAGL (Mus musculus (Mouse), UniProt O35678). Kind of experiment: in vivo. Particulars: po, read-out: MAGL (mouse) % inh. 5 mg/kg.

A word on the IC50: it is the concentration at which inhibition is half-maximal.

Like-named read-outs stand apart in the source and are kept apart here. Some results are limits rather than exact numbers.

As to `CC(C)Oc1ccc(CN2CCN(C(=O)Oc3cncc(C(N)=O)c3)CC2)c(OC(F)(F)F)c1` [Example 18, 5-Carbamoylpyridin-3-yl 4-(4-isopropoxy-2-(trifluoromethoxy)benzyl)piperazine-1-carboxylate], the inhibition at 1 µM on FAAH [1] and at MAGL [2] was greater than 75% in each case. The IC50 at FAAH [1] (read-out: FAAH (human) IC50) and on MAGL [2] (read-out: MAGL (human) IC50) was 0.1 to 1 µM throughout. Besides, the inhibition at 5 mg/kg at FAAH [3] and on MAGL [4] was greater than 75% each time.

Consider `C[C@@H]1CN(Cc2cc(F)cc(C(F)(F)F)c2)CCN1C(=O)Oc1cncc(C(N)=O)c1` [Example 20, 5-Carbamoylpyridin-3-yl (R)-4-(3-fluoro-5-(trifluoromethyl)benzyl)-2-methylpiperazine-1-carboxylate], for which the inhibition at 1 µM at FAAH [1] and at MAGL [2] was greater than 75% each time. Further, the IC50 on FAAH [1] (read-out: FAAH (human) IC50) and at MAGL [2] (read-out: MAGL (human) IC50) was less than 0.1 µM each time. The inhibition at 5 mg/kg at FAAH [3] and at MAGL [4] was greater than 75% in each case.

`NC(=O)c1cncc(OC(=O)N2CCC3(CCN(Cc4ccc(Cl)c(Cl)c4)C3)CC2)c1` [Example 36, 5-Carbamoylpyridin-3-yl 2-(3,4-dichlorobenzyl)-2,8-diazaspiro[4.5]decane-8-carboxylate]: the inhibition at 1 µM on FAAH [1] and on MAGL [2] was greater than 75% in each case. For the same compound, the concentration for half-maximal inhibition (IC50) on FAAH [1] (read-out: FAAH (human) IC50) and on MAGL [2] (read-out: MAGL (human) IC50) was less than 0.1 µM each time. For the same compound, the inhibition at 5 mg/kg is greater than 75% on FAAH [3] and 25 to 50% on MAGL [4].

`O=C(Oc1cncc(C(F)(F)F)c1)N1CCC2(CC1)CN(Cc1cccc(Oc3cncc(C(F)(F)F)c3)c1)C2` [Example 38, 5-(Trifluoromethyl)pyridin-3-yl 2-(3-((5-(trifluoromethyl)pyridin-3-yl)oxy)benzyl)-2,7-diazaspiro[3.5]nonane-7-carboxylate]: the inhibition at 1 µM at FAAH [1] and at MAGL [2] was greater than 75% throughout. Besides, the half-maximal inhibitory concentration (IC50) on FAAH [1] (read-out: FAAH (human) IC50) and at MAGL [2] (read-out: MAGL (human) IC50) was less than 0.1 µM throughout. Further, the inhibition at 5 mg/kg at FAAH [3] was greater than 75%; on MAGL [4], 0 to 25%.

As to `CC(=O)Nc1cncc(OC(=O)N2CCN(Cc3ccc(Cl)c(OC(C)C)c3)CC2)c1` [Example 52, 5-Acetamidopyridin-3-yl 4-(4-chloro-3-isopropoxybenzyl)pipera-zine-1-carboxylate], the inhibition at 1 µM on FAAH [1] and at MAGL [2] was greater than 75% throughout. For the same compound, the IC50 on FAAH [1] (read-out: FAAH (human) IC50) was 0.1 to 1 µM; against MAGL [2] it was less than 0.1 µM. Moreover, the inhibition at 5 mg/kg at FAAH [3] was greater than 75%; on MAGL [4], 0 to 25%.

Consider `C[C@@H]1CN(Cc2cc(Cl)cc(C(F)(F)F)c2)CCN1C(=O)Oc1cncc(C(N)=O)c1` [Example 65, (R)-5-Carbamoylpyridin-3-yl 4-(3-chloro-5-(trifluoromethyl)benzyl)-2-methylpiperazine-1-carboxylate], for which the inhibition at 1 µM at FAAH [1] and on MAGL [2] was greater than 75% in each case. Further, the IC50 at FAAH [1] (read-out: FAAH (human) IC50) and at MAGL [2] (read-out: MAGL (human) IC50) was 0.1 to 1 µM each time. The inhibition at 5 mg/kg on FAAH [3] and at MAGL [4] was greater than 75% in each case.

As to `C[C@@H]1CN(Cc2cccc(OC(F)(F)F)c2)CCN1C(=O)Oc1cncc(C(N)=O)c1` [Example 74, (R)-5-Carbamoylpyridin-3-yl 2-methyl-4-(3-(trifluoromethoxy)benzyl)piperazine-1-carboxylate], the half-maximal inhibitory concentration (IC50) against FAAH [1] is less than 0.1 µM; at MAGL [2] (read-out: MAGL (human) IC50), 0.1 to 1 µM. The inhibition at 1 µM at FAAH [1] is greater than 75%; on MAGL [2], 25 to 50%. The inhibition at 5 mg/kg on FAAH [3] and on MAGL [4] was greater than 75% each time.

`C[C@@H]1CN(Cc2cc(Cl)cc(Oc3ncccn3)c2)CCN1C(=O)Oc1cncc(C#N)c1` [Example 86, 5-Cyanopyridin-3-yl (R)-4-(3-chloro-5-(pyrimidin-2-yloxy)benzyl)-2-methylpiperazine-1-carboxylate]: the IC50 against FAAH [1] is less than 0.1 µM; at MAGL [2], 0.1 to 1 µM. Further, the inhibition at 1 µM on FAAH [1] and at MAGL [2] was greater than 75% in each case. For the same compound, the inhibition at 5 mg/kg on FAAH [3] and at MAGL [4] was greater than 75% each time.
